Like-named read-outs stand apart in the source and are kept apart here.
Legend:
[1] = Plasma free fraction (fu) and unbound Cmax (Cmax,u); format: in vitro ADME, human; details: unbound plasma Cmax
[2] = test system: THLE or HepG2 cells, isolated mitochondria, BSEP; details: cited from earlier work
PHH spheroids = details: cited from earlier work; for hLiMTs ATP <20 x Cmax: In vitro Assay, ref Vorrink 2018
[3] = test system: HepG2 C3A spheroid, BSEP, Glu/Gal in HepG2 cells, bioactivation; details: cited from earlier work; for Bayesian Machine Learning DILI prediction, Williams (2019): Bayesian modeling, ref Williams et al. 2019; for Bayesian Machine Learning: In vitro Assay, ref Williams 2019
[4] = read-out: Human plasma Cmax; total plasma Cmax.tot, median of 9 literature references; cited from earlier work
[5] = plasma free fraction; cited from earlier work
[6] = test system: THLE-Null and THLE-3A4 cells; details: In vitro Assay; ref Gustafsson 2014; cited from earlier work
rBsep = details: In vitro Assay; ref Dawson 2012; cited from earlier work
hLiMTs [7] = test: Combined HCI (HCS) and cellular ATP 3D assay in hLiMTs; details: for AC50 / minimal effective concentration: Homo sapiens; for DILI prediction hLiMTs (HCS-MEC): Microtissue model structural based (HCI), combined HCS and ATP, MEC < 25 × Cmax.tot cut-off; for hLiMTs <25x Avg Cmax ATP / hLiMTs <100x Avg Cmaxu ATP: ATP endpoint; for hLiMTs <25x Avg Cmax ATP / hLiMTs <25x Avg Cmax HCS / hLiMTs <25x Avg Cmax All: cut-off <25x Avg Cmax; for hLiMTs <100x Avg Cmaxu ATP / hLiMTs <100x Avg Cmaxu HCS / hLiMTs <100x Avg Cmaxu All: cut-off <100x Avg Cmaxu; for hLiMTs <25x Avg Cmax HCS / hLiMTs <100x Avg Cmaxu HCS: HCS endpoints; for hLiMTs <25x Avg Cmax All: all endpoints (ATP and HCS); for hLiMTs Cmax max All / hLiMTs Cmax min All / hLiMTs <10 uM All / hLiMTs <100x Avg Cmaxu All: all endpoints; for hLiMTs Cmax max All: Cmax max used; for hLiMTs Cmax min All: Cmax min used; for hLiMTs <10 uM All: cut-off <10 uM
HepaRG spheroids = test: Combined HCI (HCS) and cellular ATP 3D assay in HepaRG spheroids; details: for HepaRG <25x Avg Cmax ATP / HepaRG <100x Avg Cmaxu ATP: ATP endpoint; for HepaRG <25x Avg Cmax ATP / HepaRG <25x Avg Cmax HCS / HepaRG <25x Avg Cmax All: cut-off <25x Avg Cmax; for HepaRG <100x Avg Cmaxu ATP / HepaRG <100x Avg Cmaxu HCS / HepaRG <100x Avg Cmaxu All: cut-off <100x Avg Cmaxu; for HepaRG <25x Avg Cmax HCS / HepaRG <100x Avg Cmaxu HCS: HCS endpoints; for HepaRG <25x Avg Cmax All: all endpoints (ATP and HCS); for HepaRG Cmax max All / HepaRG Cmax min All / HepaRG <10 uM All / HepaRG <100x Avg Cmaxu All: all endpoints; for HepaRG Cmax max All: Cmax max used; for HepaRG Cmax min All: Cmax min used; for HepaRG <10 uM All: cut-off <10 uM; for AC50 / minimal effective concentration: Homo sapiens; for HepaRG <25x Avg Cmax ATP / HepaRG <100x Avg Cmaxu ATP / HepaRG <25x Avg Cmax HCS / HepaRG <100x Avg Cmaxu HCS / HepaRG <25x Avg Cmax All / HepaRG Cmax max All / HepaRG Cmax min All / HepaRG <10 uM All / HepaRG <100x Avg Cmaxu All / AC50 / minimal effective concentration: HepaRG; for DILI prediction HepaRG spheroids (HCS-MEC): Microtissue model structural based (HCI), combined HCS and ATP, MEC < 25 × Cmax.tot cut-off
human hepatocytes = details: cited from earlier work; for Structural based (HCI): In vitro Assay, ref Xu 2008; for DILI in vitro assay prediction, Xu (2008): Structural based (HCI), human hepatocytes, ref Xu et al. 2008
[8] = test system: HepG2 cells, primary human hepatocytes; details: In vitro Assay; ref Garside 2014; cited from earlier work
[9] = test system: isolated mouse liver mitochondria; details: In vitro Assay; ref Porceddu 2012; cited from earlier work
[10] = cited from earlier work
PHH = details: cited from earlier work
hLiMTs [11] = details: cited from earlier work
[12] = cited from earlier work; remark: listed apart in the source
[13] = Modeled in vitro assays (cytotoxicity, mitochondrial dysfunction, BSEP), ref Aleo et al. 2019
[14] = In vitro Assay, ref Proctor 2017

## CN1CCN(C2=Nc3cc(Cl)ccc3Nc3ccccc32)CC1 [clozapine]
[1]
  Human plasma Cmax,u: 73 nM
[2]; In vitro Assay, ref Aleo 2019
  Partition Hybrid HRM Score: +VE
  Ro2 Hybrid HRM Score: +VE
[2]; [13]
  Partition Hybrid HRM Score ≥4, Aleo (2019): +VE (Partition Hybrid HRM Score ≥4)
  Partition Hybrid HRM Score ≥8, Aleo (2019): -VE
  Rule of Two hybrid HRM Score ≥3, Aleo (2019): +VE (Rule of Two hybrid HRM Score ≥3)
  Rule of Two hybrid HRM Score ≥8, Aleo (2019): -VE
PHH spheroids
  hLiMTs ATP <20 x Cmax: +VE (IC20 < 20 × Cmax.tot cut-off)
[3]
  Bayesian Machine Learning DILI prediction, Williams (2019): +VE
  Bayesian Machine Learning: +VE
[4]
  Cmax: 2450 nM
[5]
  fu: 0.030
[6]
  THLE-Null: -VE
rBsep
  Inhibition of rBsep cutoff<1& cmax u>.2: -VE
  Inhibition of rBsep cutoff<3: +VE
hLiMTs [7]; read-out: ATP endpoint AC50
  AC50: 14 µM
hLiMTs [7]; read-out: ATP endpoint MEC
  minimal effective concentration: 10.5 µM
hLiMTs [7]; read-out: HCS endpoint AC50
  AC50: 15.2 µM
hLiMTs [7]; read-out: HCS endpoint MEC
  minimal effective concentration: 5.61 µM
hLiMTs [7]
  DILI prediction hLiMTs (HCS-MEC): +VE (MEC < 25 × Cmax.tot cut-off)
  hLiMTs <25x Avg Cmax ATP: +ve
  hLiMTs <100x Avg Cmaxu ATP: -ve
  hLiMTs <25x Avg Cmax HCS: +ve
  hLiMTs <100x Avg Cmaxu HCS: +ve (<100x Avg Cmaxu)
  hLiMTs <25x Avg Cmax All: +ve
  hLiMTs Cmax max All: +ve
  hLiMTs Cmax min All: +ve
  hLiMTs <10 uM All: +ve (<10 uM)
  hLiMTs <100x Avg Cmaxu All: +ve (<100x Avg Cmaxu)
HepaRG spheroids
  HepaRG <25x Avg Cmax ATP: +ve
  HepaRG <100x Avg Cmaxu ATP: -ve
  HepaRG <25x Avg Cmax HCS: +ve
  HepaRG <100x Avg Cmaxu HCS: +ve (<100x Avg Cmaxu)
  HepaRG <25x Avg Cmax All: +ve
  HepaRG Cmax max All: +ve
  HepaRG Cmax min All: +ve
  HepaRG <10 uM All: +ve (<10 uM)
  HepaRG <100x Avg Cmaxu All: +ve (<100x Avg Cmaxu)
  DILI prediction HepaRG spheroids (HCS-MEC): +VE (MEC < 25 × Cmax.tot cut-off)
HepaRG spheroids; read-out: ATP endpoint AC50
  AC50: 16.6 µM
HepaRG spheroids; read-out: ATP endpoint MEC
  minimal effective concentration: 13.1 µM
HepaRG spheroids; read-out: HCS endpoint AC50
  AC50: 13.2 µM
HepaRG spheroids; read-out: HCS endpoint MEC
  minimal effective concentration: 4.66 µM

## COc1ccc2c(c1)c(CC(=O)O)c(C)n2C(=O)c1ccc(Cl)cc1 [indomethacin]
[1]
  Human plasma Cmax,u: 84 nM
Human hepatocytes
  Structural based (HCI): -VE
  DILI in vitro assay prediction, Xu (2008): -VE
PHH spheroids
  hLiMTs ATP <20 x Cmax: +VE (IC20 < 20 × Cmax.tot cut-off)
[3]
  Bayesian Machine Learning DILI prediction, Williams (2019): +VE
  Bayesian Machine Learning: +VE
[4]
  Cmax: 8380 nM
[5]
  fu: 0.010
[6]
  THLE-Null: -VE
[8]
  Cluster 1-6 +VE Assay: -VE
[9]
  in vitro data EC2<=1x Cmax: +VE
hLiMTs [7]; read-out: ATP endpoint AC50
  AC50: 9.29 µM
hLiMTs [7]; read-out: ATP endpoint MEC
  minimal effective concentration: 4.54 µM
hLiMTs [7]; read-out: HCS endpoint AC50
  AC50: 672 µM
hLiMTs [7]; read-out: HCS endpoint MEC
  minimal effective concentration: 95.2 µM
hLiMTs [7]
  DILI prediction hLiMTs (HCS-MEC): +VE (MEC < 25 × Cmax.tot cut-off)
  hLiMTs <25x Avg Cmax ATP: +ve
  hLiMTs <25x Avg Cmax HCS: +ve
  hLiMTs <25x Avg Cmax All: +ve
  hLiMTs Cmax max All: +ve
  hLiMTs Cmax min All: +ve
HepaRG spheroids
  HepaRG <25x Avg Cmax ATP: +ve
  HepaRG <25x Avg Cmax HCS: +ve
  HepaRG <25x Avg Cmax All: +ve
  HepaRG Cmax max All: +ve
  HepaRG Cmax min All: +ve
  DILI prediction HepaRG spheroids (HCS-MEC): +VE (MEC < 25 × Cmax.tot cut-off)
HepaRG spheroids; read-out: ATP endpoint AC50
  AC50: 94.2 µM
HepaRG spheroids; read-out: ATP endpoint MEC
  minimal effective concentration: 79.2 µM
HepaRG spheroids; read-out: HCS endpoint AC50
  AC50: 215 µM
HepaRG spheroids; read-out: HCS endpoint MEC
  minimal effective concentration: 23.8 µM

## CC(C)(C)NCC(O)COc1cccc2c1CC(O)C(O)C2 (centres unmarked) [nadolol]
[1]
  Human plasma Cmax,u: 294 nM
[10]; LTKB DILIrank category, ref Chen et al. 2016
  DILI severity category (Chen et al. [2016]): Ambiguous
[10]; human DILI classification, LTKB DILIrank, ref Chen et al. 2016
  DILI severity category (Chen 2016): Ambiguous
[10]; human DILI severity, ref Chen et al.
  DILI severity category: Ambiguous
[10]; ref Chen 2016
  DILI +VE (5-8), DILI -VE (-4): -VE
  DILI severity category: Ambiguous DILI-concern
Human hepatocytes
  Structural based (HCI): -VE
  DILI in vitro assay prediction, Xu (2008): -VE
PHH; 2D PHH, ATP, IC50 < 100 × Cmax.tot, ref Proctor et al. 2017
  PHH/100xCmax, Proctor (2017): -VE
PHH; 2D PHH, ATP, IC50 threshold 100 µM, ref Proctor et al. 2017
  PHH/100uM, Proctor (2017): -VE
PHH; [14]
  PHH ATP <100uM: -VE
hLiMTs [11]; [14]
  hLiMTs ATP <100uM: -VE
hLiMTs [11]; hLiMTs, ATP, IC50 < 100 × Cmax.tot, ref Proctor et al. 2017
  hLiMTs/100xCmax, Proctor (2017): -VE
hLiMTs [11]; hLiMTs, ATP, IC50 threshold 100 µM, ref Proctor et al. 2017
  hLiMTs/100uM, Proctor (2017): -VE
PHH spheroids
  hLiMTs ATP <20 x Cmax: -VE
PHH spheroids; PHH spheroids, ATP, 14 days, IC20 < 20 × Cmax.tot, ref Vorrink et al. 2018
  DILI in vitro assay prediction, Vorrink (2018): -VE
[3]
  Bayesian Machine Learning DILI prediction, Williams (2019): -VE
  Bayesian Machine Learning: -VE
[4]
  Cmax: 420 nM
[5]
  fu: 0.700
[12]; Chen et al. 2016 or literature alignment, ref Chen et al. 2016
  Assigned DILI category: 1
[12]; ref Proctor 2017
  In vivo DILI: -VE
[12]; ref Vorrink 2018
  In vivo DILI: -VE
[12]; ref Williams 2019
  In vivo DILI: -VE
[12]; ref Xu 2008
  In vivo DILI: -VE
hLiMTs [7]
  DILI prediction hLiMTs (HCS-MEC): -VE
  hLiMTs <25x Avg Cmax ATP: -ve
  hLiMTs <100x Avg Cmaxu ATP: -ve
  hLiMTs <25x Avg Cmax HCS: -ve
  hLiMTs <100x Avg Cmaxu HCS: -ve
  hLiMTs <25x Avg Cmax All: -ve
  hLiMTs Cmax max All: -ve
  hLiMTs Cmax min All: -ve
  hLiMTs <10 uM All: -ve
  hLiMTs <100x Avg Cmaxu All: -ve
HepaRG spheroids
  HepaRG <25x Avg Cmax ATP: -ve
  HepaRG <100x Avg Cmaxu ATP: -ve
  HepaRG <25x Avg Cmax HCS: -ve
  HepaRG <100x Avg Cmaxu HCS: -ve
  HepaRG <25x Avg Cmax All: -ve
  HepaRG Cmax max All: -ve
  HepaRG Cmax min All: -ve
  HepaRG <10 uM All: -ve
  HepaRG <100x Avg Cmaxu All: -ve
  DILI prediction HepaRG spheroids (HCS-MEC): -VE

Source: publication PMC7395068, “The evolution of strategies to minimise the risk of human drug-induced liver injury (DILI) in drug discovery and development” (Archives of Toxicology, 2020)
